Earlier results on twelve molecules are cited in patent US20070104896A1, “Optical film, polarizing plate and image display device” (FUJIFILM Corporation, priority 2005, published 2007).

Each structure is given as a SMILES string.

For the data set the following is noted: pKa of a conjugated acid of the organic base; values in an aqueous solution.
On to `Cc1ccc2ccc3ccc(C)nc3c2n1` [b-5, 2,9-Dimethyl-1,10-phenanthroline], for which the pKa is 5.9.
`Cc1ccnc2c1ccc1c(C)ccnc12` [b-6, 4,7-Dimethyl-1,10-phenanthroline]: the pKa is reported as 5.9.
Take `Cc1ccccn1` [b-7, 2-Methylpyridine]: the pKa is given as 6.1.
Regarding `Cc1ccncc1` [b-8, 4-Methylpyridine], the pKa is on record as 6.1.
On to `CN(C)c1cccnc1` [b-9, 3-(N,N-Dimethylamino)pyridine], for which the pKa is given as 6.5.
As for `Cc1cccc(C)n1` [b-10, 2,6-Dimethylpyridine], the pKa was 7.0.
Regarding `Cc1ncc[nH]1` [b-12, 2-Methyl imidazole], the pKa is 7.6.
Consider `CCN1CCOCC1` [b-13, N-Ethylmorpholine], for which the pKa was 7.7.
For `CN1CCOCC1` [b-14, N-Methylmorpholine], the pKa was 7.8.
For the molecule `COCCNCCOC` [b-15, Bis(2-methoxyethyl)amine], the pKa is reported as 8.9.
As to `CN(C)CCO` [b-17, N,N-Dimethyl-2-aminoethanol], the pKa is reported as 9.5.
For the molecule `CN(C)C` [b-18, Trimethylamine], the pKa was 9.9.

As a reminder, the pKa is the pH at which an ionisable group is half protonated.
